“Also recorded” adds a separate entry of the source. Where two headings read alike, the source gives them in different places.
What was measured:
[1] = cited from earlier work
HT-29 tumors [2] = assay: Biodistribution / tumor localization in immunodeficient mice with HT-29 tumors; conditions: female immunodeficient mice with HT-29 tumors
Description: (§1) FIG. 2A is a graph of comparative biodistribution data of contrast agent Polymer 3 (NC100448) versus indocyanine green as control in female immunodeficient mice containing HT-29 tumors at one hour post intravenous injection of phosphate buffered saline solutions of each.
(§2) FIG. 2B is a graph of comparative biodistribution data of contrast agent Polymer 3 (NC100448) versus indocyanine green as control in female immunodeficient mice containing HT-29 tumors at three hours post intravenous injection of phosphate buffered saline solutions of each.

[3] = tested on: leucocytes (white blood cells); assay: Fate in dog blood (confocal scanning microscope, flow cytometry); assay type: in vivo; conditions: injected into beagle dogs; flow cytometry and fluorescence microscopy
HT-29 tumors [4] = conditions: mouse, in vivo
Description: as §1, §2

STa receptor = STa receptor (Homo sapiens, UniProt P25092); assay: Competitive inhibition of the STa receptor; assay type: binding
Description: Isolation and purification were done using the same HPLC conditions yielding about 0.1 mg yellow product. Ultra violet maxima in 1/1 water/methanol 10 mM ammonium acetate were: 202 nm (a 0.822), 277 nm (a 0.096), 457 nm (a 0.096), 482 nm (a 0.107). Mass spectrum (electrospray, negative): M−H 2359; M+Na 2381; theoretical M 2360.

[5] = tested on: HL-60 human peripheral blood promyelocytic leukemia cells; assay: Sonication of HL-60 cell suspensions in vitro, cell death by Trypan Blue and LDH; assay type: cell-based; conditions: 148 nanomoles/ml, insonated 60 and 120 seconds, 65 volts, 47 kHz bath
Description: HL-60 human peripheral blood promyelocytic leukemia cells (American Type Culture Collection, Rockville, Md.) were grown at 37° C. in a 5% CO2/air atmosphere, in a 1:1 mixture of DMEM and IMEM fortified with 10% fetal bovine serum. Before use, the cells were centrifuged (5 min. at 1500 rpm), washed with phosphate buffered saline (PBS), and then resuspended in PBS, the volume being adjusted to provide cell suspensions containing […]. These were stored in crushed ice until used.
Viability was assessed by staining with Trypan Blue dye. 50 μl of the suspension were mixed with […] Trypan Blue solution (0.4%, Sigma), and the cell concentration counted using a Neubauer-type hemocytometer. Four or five large squares were counted, the blue (dead) cells being counted separately from the unstained (live) cells, and the results averaged. […]
For insonation, the voltage was set to the required value, the power was turned on, and the sample exposed for the required amount of time (secs.). Viability was again assessed with Trypan Blue, the samples were then centrifuged for 5 minutes at 2000 rpm, and a sample of cell free supernatant liquid taken for lactate dehydrogenase (LDH) measurement. […] The LDH was measured by a standard procedure using a Beckman Synchron CX5CE Instrument, the results were measured in IU/l, and afforded a quantitative measurement of cell death in the samples. […]

Sequence of STa receptor (P25092 24-1073, species assumed): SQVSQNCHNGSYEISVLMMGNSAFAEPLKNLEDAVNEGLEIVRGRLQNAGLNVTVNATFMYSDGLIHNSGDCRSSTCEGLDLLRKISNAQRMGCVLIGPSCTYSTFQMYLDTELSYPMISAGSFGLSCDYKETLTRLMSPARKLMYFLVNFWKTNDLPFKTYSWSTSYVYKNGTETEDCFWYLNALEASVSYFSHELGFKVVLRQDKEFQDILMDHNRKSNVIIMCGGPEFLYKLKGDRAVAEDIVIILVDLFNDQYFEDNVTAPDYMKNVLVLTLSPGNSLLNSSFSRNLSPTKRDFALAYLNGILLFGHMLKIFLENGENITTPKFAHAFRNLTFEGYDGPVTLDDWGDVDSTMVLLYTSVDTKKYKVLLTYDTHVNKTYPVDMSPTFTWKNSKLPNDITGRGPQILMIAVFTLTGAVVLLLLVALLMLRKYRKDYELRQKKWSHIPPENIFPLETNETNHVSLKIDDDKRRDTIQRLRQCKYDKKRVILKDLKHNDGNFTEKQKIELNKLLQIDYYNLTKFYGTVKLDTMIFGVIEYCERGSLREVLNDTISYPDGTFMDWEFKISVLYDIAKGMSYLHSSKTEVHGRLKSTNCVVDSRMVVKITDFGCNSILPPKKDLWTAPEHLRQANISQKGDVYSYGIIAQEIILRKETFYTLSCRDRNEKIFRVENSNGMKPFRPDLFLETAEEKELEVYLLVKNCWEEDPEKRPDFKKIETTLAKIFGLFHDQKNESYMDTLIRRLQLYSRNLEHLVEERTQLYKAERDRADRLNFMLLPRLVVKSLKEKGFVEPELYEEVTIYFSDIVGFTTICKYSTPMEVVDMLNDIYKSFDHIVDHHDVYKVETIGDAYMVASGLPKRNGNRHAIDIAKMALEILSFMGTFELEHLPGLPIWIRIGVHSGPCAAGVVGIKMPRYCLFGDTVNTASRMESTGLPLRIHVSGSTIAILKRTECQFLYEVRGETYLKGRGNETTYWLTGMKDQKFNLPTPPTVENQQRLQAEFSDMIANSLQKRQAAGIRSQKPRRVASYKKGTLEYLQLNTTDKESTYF

CCOC(=O)c1c(I)c(NS(=O)(=O)c2cccc3c(N(C)C)cccc23)c(I)c(N(CC)C(C)=O)c1I [Example 52, Ethyl 3-(N-Acetyl-N-ethylamino)-5-[(5-dimethylamino-1-naphthylsulfonyl)amino]-2,4,6-triiodobenzoate]
melting point: 238 to 240 °C

Oc1ccc2ccccc2c1N=Nc1ccc(N=Nc2ccccc2)cc1 [Sudan III]
solubility in sesame oil ([1]; sesame oil): soluble in sesame oil
solubility in water ([1]; water): very insoluble in water

CC1(C)C(/C=C/C=C/C=C/C=C2\N(CCCCS(=O)(=O)O)c3ccc4ccccc4c3C2(C)C)=[N+](CCCCS(=O)(=O)[O-])c2ccc3ccccc3c21 [indocyanine green]
detection in the tumor (FIG. 2A) (HT-29 tumors [2]; one hour post intravenous injection, PBS solution): negligibly detected
detection in the tumor (FIG. 2B) (HT-29 tumors [2]; three hours post intravenous injection, PBS solution): negligibly detected

Air-exposed-Tetronic-908-conjugated-to-fluorescein Isothiocyanate
binding to blood cells [3]: binds to a specific cell class within the blood; also recorded: attached to leucocytes (white blood cells)

ClAlPc(SO2NHPEG5000)4 [Example 45]
injected dose localized in the tumor after one hour (HT-29 tumors [4]): 2.5 % of the injected dose

Thiourea Linked 5-fluorescein to STa (syn. 2) [Example 79]
competitive inhibitor of the STa receptor (STa receptor): tested positive

[Melamine][SO2ClAlPc(SO3H)3]3 [Example 46]
injected dose localized in the tumor after one hour (HT-29 tumors [4]): 0.1 % of the injected dose

[NH(PEG3400)NHSO2PcAlCl(SO3H)2SO2]n [Example 43]
injected dose localized in the tumor after one hour (HT-29 tumors [4]): 4 % of the injected dose

bisthioether 2:1 dye:polymer reaction product between 2-[2-[2-chloro-3-[[1,3-dihydro-1,1,-dimethyl-3-(3-sulfopropyl)-2H-benz[e]indol-2-ylidene]ethylidene]-5-(ethoxycarbonyl)-1-cyclohexen-1-yl]ethenyl]-1,1-dimethyl-3-(3-sulfopropyl)-1H-benz[e]indolium, inner salt, sodium salt and disodium PEG3,400-α,ω-dithiolate [Polymer 3]
concentration in the blood at three hours relative to one hour (HT-29 tumors [4]): decreased
concentration in the tumor at three hours relative to one hour (HT-29 tumors [4]): increased
detection in the tumor (FIG. 2A) (HT-29 tumors [4]; iv): detected in the tumor
detection in the tumor (FIG. 2B) (HT-29 tumors [4]; iv): detected in the tumor

chloroaluminum phthalocyanine tetrasulfonate
cell killing under ultrasound (FIG. 1) [5]: Enhancement of Cell Killing

copolymer of PEG3400-α,ω-diamine and aluminum(III)phthalocyanine tetrasulfonyl chloride [Example 1]
injected dose localized in the tumor after one hour (HT-29 tumors [2]; solution in phosphate buffered saline injected, one hour): 4 % of the injected dose

copolymer of PEG 5000-α,ω-diamine and aluminum(III)phthalocyanine tetrasulfonyl chloride [Example 4]
injected dose localized in the tumor after one hour (HT-29 tumors [4]): 2.5 % of the injected dose

copolymer of melamine and aluminum(III)phthalocyanine tetrasulfonyl chloride [Example 5]
injected dose localized in the tumor after one hour (HT-29 tumors [4]): 0.1 % of the injected dose

Source: patent publication US6498945B1, “Sonodynamic therapy using an ultrasound sensitizer compound” (Amersham Health AS, priority 1997, dated 2002)
